Data reported in EP0603240B1, “SAFENING HERBICIDAL PYRAZOLYLSULFONYLUREAS” (priority 1991, dated 1993).

Key:
Assay type in all cases: in vivo
corn [1] = experiment: Example 26, field trials, pre-plant incorporation (PPI): corn growth reduction; conditions: for maximum injury level (GR) / corn growth reduction (GR): PPI
Experimental: In order to better understand and to confirm the results of greenhouse tests with herbicidal compositions comprising representative compounds according to Formula I and an antidote with and without a co-herbicide, a large number of field trials were conducted. This example provides a summary of those field trials.
The primary purpose of the field trials summarized herein was to ascertain the amount of corn injury caused by a compound according to Formula I. viz. Herbicide No. 1, with and without a co-herbicide of the α-chloroacetanilide class, viz., Herbicide Nos. 6 and 7, and the extent that any corn injury could be safened by a dichloroacetamide antidotal compound, viz., Antidote No. 15.
Corn injury is generally expressed, in broad terms, in stand reduction, growth reduction, malformed plants and other more specific effects. For purposes of the summary here, the results of a plurality of field trials are expressed in terms of growth reduction (GR), i.e., a significant reduction in plant height of the corn stand. A common criteria for commercially-acceptable corn injury is an amount equal to or less than 10% malformed plants or stand reduction and for present reporting purposes, no greater than about 15% growth reduction. The corn injury/safening described for these field trials refers to commercially-unacceptable to commercially-acceptable performance.
In the field trials from a wide distribution of trial locations, soil types (all having in excess of 2% organic matter), climatic effects, etc., the test chemicals were applied as tank mixes in various modes of application, i.e., pre-plant incorporation (PPI) and preemergence surface application (PRE). Test plots were small plots with three replications in a randomized complete block design. Observations were made and recorded in a period of from 31-50 days after treatment.

corn [2] = experiment: Example 1, greenhouse Procedure II: antidotes against Herbicide No. 1
Experimental: (§1) Containers were filled and compacted with a fumigated silt loam top soil to a depth of about 1.3 cm from the top of the container. A first container was designated as an untreated control, a second container was designated as a herbicide control, and a third container was designated as a herbicide + antidote test container. Each of the containers was seeded with a crop species. A measured amount of herbicide dispersed or dissolved in acetone was applied to a measured quantity of soil. To this same quantity of soil treated with herbicide, there was added a measured amount of antidote dispersed or dissolved in acetone. The quantity of soil treated with the herbicide and antidote was thoroughly mixed to incorporate the herbicide and antidote in the soil uniformly. The seed bed in the third container of soil was covered with the soil treated with the herbicide and antidote and the container was leveled. For each test series, the seed beds of the first and second containers were likewise covered by soil layers. the cover layer of the first container was not treated with herbicide or antidote.
(§2) The containers were then placed on a bench in a greenhouse and sub-irrigated as required for the duration of the test. […] Plant response is measured in terms of percent injury. Antidote efficacy is indicated as the difference in plant injury by the herbicide(s) without the antidote and with the antidote.
(§3) This procedure is the same as Procedure I, but modified in the manner that after incorporation of the chemicals (herbicide and antidote) the containers with the covered seedbed were treated with an initial overhead irrigation equivalent to 0.6 cm rainfall, then subsequently sub-irrigated as required on greenhouse benches.
(§4) In the series of greenhouse tests described below, for routine screening purposes the herbicide/antidote compositions were tested in crop/weed combinations involving corn as the crop and either or both of the weeds barnyardgrass (Echinochloa crusgalli), a monocotyledonous weed, and velvetleaf (Abutilon theophrasti), a dicotyledonous weed. In the tables below, these weeds are indicated by the symbols "BYG" and "VL", respectively.
This example was designed to investigate the antidotal efficacy of a plurality of antidotes against Herbicide No. 1 in corn in the presence of barnyard grass and velvetleaf. The antidotes used in this example were Antidote Nos. 1-10, 12, 13 and 15.
The test in this example was conducted as described above for Procedure II. The antidotes were applied to the soil cover layer by pipet after spraying on the herbicide followed by incorporation and simulated rain.

[3] = test system: barnyardgrass (Echinochloa crusgalli); experiment: Example 3, Procedure I: antidotes against Herbicide No. 1
Experimental: as §1, §2, §4
This example details the results of tests with Antidote Nos. 12, 15 and 16 to safen Herbicide No. 1 over application rates ranging from 4.48 kg/ha down to 0.56 kg/ha, in corn in the presence of barnyardgrass. Procedure I described above was used in these tests.

corn [4] = experiment: Example 16, Procedure II: Herbicide No. 1 + EPTC (No. 4, EPTAM) with antidotes
Experimental: as §1, §2, §3
The test procedure used in these experiments was that of Procedure II described above. The antidotes were applied to a soil cover layer by pipet after spraying the herbicides onto the soil, followed by incorporation and overhead irrigation. […]

[5] = Herb. No. 1 0.56 kg/ha + antidote 2.24 kg/ha

## CC1(C)OC(c2ccco2)CN1C(=O)C(Cl)Cl (centres unmarked) [Antidote No. 15, Oxazolidine, 3-(dichloroacetyl)-5-(2-furanyl)-2,2-dimethyl]
Corn [1]; Herbicide No. 1 0.14 kg/ha + Herbicide No. 6 + Antidote No. 15
  corn injury level (GR): 10.3%
Corn [1]; Herbicide No. 1 0.28 kg/ha + Herbicide No. 6 + Antidote No. 15
  corn injury level (GR): 12.5%
Corn [1]; Herbicide No. 1 0.7 kg/ha + Herbicide No. 6 + Antidote No. 15
  corn injury level (GR): 8.6%
Corn [1]; Herbicide No. 1 0.07 kg/ha + Herbicide No. 7 + Antidote No. 15 1:1
  maximum injury level (GR): 22%
Corn [1]; Herbicide No. 1 0.07 kg/ha + Herbicide No. 7 + Antidote No. 15 at 1:1 to Herbicide No. 1
  corn growth reduction (GR): 7.75%
Corn [1]; Herbicide No. 1 0.14 kg/ha + Herbicide No. 7 + Antidote No. 15 1:1
  maximum injury level (GR): 26%
Corn [1]; Herbicide No. 1 0.14 kg/ha + Herbicide No. 7 + Antidote No. 15 at 1:1 to Herbicide No. 1
  corn growth reduction (GR): 9.82%
Corn [1]; field trials (PPI and PRE), under most conditions
  safening of corn, assessment in words: effectively reduced corn GR injury

## COC(=O)c1c(Cl)nn(C)c1S(=O)(=O)NC(=O)Nc1nc(OC)cc(OC)n1 [Herbicide No. 1]
Corn [2]; Herb. No. 1 0.14 kg/ha, no antidote
  % Injury Corn: 5%
[3]; Herb. No. 1 0.56 kg/ha, no antidote
  % Injury BYG: 50%
[3]; Herb. No. 1 1.12 kg/ha, no antidote
  % Injury BYG: 70%
[3]; Herb. No. 1 2.24 kg/ha, no antidote
  % Injury BYG: 70%
[3]; Herb. No. 1 4.48 kg/ha, no antidote
  % Injury BYG: 75%
Corn [1]; Herbicide No. 1 0.14 kg/ha + Herbicide No. 6 (acetochlor), without an antidote
  corn injury level (GR): 14.9%
Corn [1]; Herbicide No. 1 0.28 kg/ha + Herbicide No. 6 (acetochlor), without an antidote
  corn injury level (GR): 24.9%
Corn [1]; Herbicide No. 1 0.7 kg/ha + Herbicide No. 6 (acetochlor), without an antidote
  corn injury level (GR): 12.5%
Corn [1]; Herbicide No. 1 0.07 kg/ha + Herbicide No. 7 (alachlor), without an antidote
  corn growth reduction (GR): 9.75%
Corn [1]; Herbicide No. 1 0.07 kg/ha + Herbicide No. 7, without an antidote
  maximum injury level (GR): 48%
Corn [1]; Herbicide No. 1 0.14 kg/ha + Herbicide No. 7 (alachlor), without an antidote
  corn growth reduction (GR): 13.25%
Corn [1]; Herbicide No. 1 0.14 kg/ha + Herbicide No. 7, without an antidote
  maximum injury level (GR): 48%

## COC(=O)c1c(Cl)nn(C)c1S(=O)(=O)NC(=O)Nc1nc(OC)cc(OC)n1 [No.1]
Corn [4]; Herbicide No.1 0.56 kg/ha alone
  % Injury Corn: 10%
Corn [4]; Herbicide No.1 1.12 kg/ha alone
  % Injury Corn: 15%

## CC1(C)OC(c2ccco2)CN1C(=O)C(Cl)Cl (centres unmarked) [compound 15]
Corn [2]; Herb. No. 1 0.14 kg/ha + antidote 2.24 kg/ha
  % Injury Corn: 5%
Corn [2]; [5]
  % Injury Corn: 5%
[3]; Herb. No. 1 0.56 kg/ha + antidote 0.56 kg/ha
  % Injury BYG: 50%
[3]; [5]
  % Injury BYG: 35%
[3]; Herb. No. 1 0.56 kg/ha + antidote 8.96 kg/ha
  % Injury BYG: 10%
[3]; Herb. No. 1 1.12 kg/ha + antidote 0.56 kg/ha
  % Injury BYG: 75%
[3]; Herb. No. 1 1.12 kg/ha + antidote 2.24 kg/ha
  % Injury BYG: 60%
[3]; Herb. No. 1 1.12 kg/ha + antidote 8.96 kg/ha
  % Injury BYG: 60%
[3]; Herb. No. 1 2.24 kg/ha + antidote 0.56 kg/ha
  % Injury BYG: 60%
[3]; Herb. No. 1 2.24 kg/ha + antidote 2.24 kg/ha
  % Injury BYG: 70%
[3]; Herb. No. 1 2.24 kg/ha + antidote 8.96 kg/ha
  % Injury BYG: 50%
[3]; Herb. No. 1 4.48 kg/ha + antidote 0.56 kg/ha
  % Injury BYG: 75%
[3]; Herb. No. 1 4.48 kg/ha + antidote 2.24 kg/ha
  % Injury BYG: 70%
[3]; Herb. No. 1 4.48 kg/ha + antidote 8.96 kg/ha
  % Injury BYG: 80%
[3]; antidote 8.96 kg/ha alone, no herbicide
  % Injury BYG: 0%
Corn [4]; Herbicide No.1 1.12 kg/ha + EPTAM 6.72 kg/ha, antidote 2.24 kg/ha
  % Injury Corn: 5%
